# Measured values taken from patent US12516019B2, “Amphoteric compounds” (Eastman Chemical Company, priority 2015, dated 2026).
# Tests used:
# [1] = Foam height test, Standard Test Method for Foaming Properties of Surface-Active Agents (ASTM 1173-07); type: physicochemical; details: 49° C.; for Foam height at time t = 0: t = 0 min; for Foam height at time t = 1: t = 1 min; for Foam height at time t = 2: t = 2 min; for Foam height at time t = 3: t = 3 min; for Foam height at time t = 4: t = 4 min; for Foam height at time t = 5: t = 5 min
# Source text: The Standard Test Method for Foaming Properties of Surface-Active Agents (ASTM 1173-07) for 0.1 wt % and 1.0 wt % was used to determine the foaming properties of the amphoteric compounds of the formula 1 described herein. This method generates foam under low-agitation conditions and is generally used for moderate- and high-foam surfactants. This test gathers data on initial foam height and foam decay. Foam decay provides information on foam stability.
# The apparatus for carrying out this test includes a jacketed column and a pipet. The jacketed column serves as a receiver, while the pipet delivers the surface-active solution.
# Solutions of each surface-active agent to be measured were prepared in borosilicate glass jars a day ahead of time, using ambient temperature ingredients, and were slowly rolled overnight to homogenize. The solutions were then removed from the rollers and equilibrated in a constant temperature bath (49° C.+/−1° C.) for at least 1 hour before measurement. The solution of the amphoteric compound to be tested was added to the receiver (50 mL) and to the pipet (200 mL). The pipet was positioned above the receiver and opened. As the solution fell and made contact with the solution in the receiver, foam was generated. When the pipet was empty, the time was noted and an initial foam height was recorded. The foam height was recorded each minute for five minutes. Exact size specifications for the glassware can be found in ASTM 1173-07. The foam height results for each amphoteric compound 1 and representative standards are listed below in Tables 1 (0.1% concentration) and 2 (1% concentration).
# [2] = Critical micelle concentration from surface tension (Wilhelmy plate, K100C Tensiometer); type: physicochemical; details: deionized water, ambient temperature
# Procedure: The critical micelle concentration (CMC) is an important characteristic of a surfactant, and the CMC values were determined for the amphoteric compounds of formula 1. The CMC is defined as the concentration at which micelle formation first begins, and for surface tension determination of CMC, is typically assigned as the concentration of the intersection of two straight lines through the data, where the first line is the linear portion of the initial decline in surface tension with increasing surfactant concentration, and the second is the line of constant surface tension.
# The critical micelle concentration was determined from plots of surface tension as a function of the logarithm of active surfactant concentration. Surface tension was measured via the Wilhelmy plate technique. In this method, the downward force of a rigorously clean plate probe that just contacts the liquid surface of the test sample is measured, and the surface tension is calculated from knowledge of the contact angle the liquid makes with the probe surface and the length of the probe plate.
# A K100C Tensiometer (Kruss GmbH) was used to measure surface tension of solutions in a glass sample vessel. All measurements were made under ambient temperature conditions.
# The tensiometer was equipped with a computer-controlled microdispensing and aspirating system to automate surfactant concentration adjustments of the test solution while maintaining constant solution volume between successive measurements. A roughened platinum plate probe was used. Cleanliness of probe, sample vessel, and microdispensing system was verified after cleaning between samples by measuring the surface tension of pure deionized water run through the system as a control.
# 100 mL of the 1 mg/L surfactant solution was added to the clean sample vessel and placed in the instrument. The plate probe was rinsed with deionized water and flame treated to combust off residual organic impurities, then mounted in position in the tensiometer. The experiment was initiated and run through the LabDesk version 3.2.2 (Kruss GmbH) software.
# The surface tension measurements were run sequentially (and automatically) from most dilute to most concentrated by incrementally injecting known volume aliquots of the 10,000 mg/L surfactant solution into the sample, homogenizing the sample after injection by stirring for 30 seconds via a magnetic stir bar in the solution, and then aspirating out equal volume that was added to the sample vessel to keep the total sample volume constant for each measurement.
# The sample vessel was then automatically moved into measurement position, and the surface tension measurement was made and recorded. This sequence was repeated until all concentrations had been measured.
# The active surfactant concentration range spanned from 1 mg/L to 5000 mg/L over 50 concentration increments, equally spaced on a logarithmic scale over the full range of concentrations measured.
# The sample at each concentration was measured 10 times, and the average of the 10 measures was plotted against the logarithm of the surfactant concentration.
# After completing the full range of concentrations, the software provided best-fit lines to estimate CMC, and these regression lines were manually adjusted as needed to give the broadest range of linear behavior for each line.
Compound,Foam height at time t = 0 ([1]; 1 g/L (0.1 weight %)) [mm],Foam height at time t = 1 ([1]; 1 g/L (0.1 weight %)) [mm],Foam height at time t = 2 ([1]; 1 g/L (0.1 weight %)) [mm],Foam height at time t = 3 ([1]; 1 g/L (0.1 weight %)) [mm],Foam height at time t = 4 ([1]; 1 g/L (0.1 weight %)) [mm],Foam height at time t = 5 ([1]; 1 g/L (0.1 weight %)) [mm],Foam height at time t = 0 ([1]; 10 g/L (1.0 weight %)) [mm],Foam height at time t = 1 ([1]; 10 g/L (1.0 weight %)) [mm],Foam height at time t = 2 ([1]; 10 g/L (1.0 weight %)) [mm],Foam height at time t = 3 ([1]; 10 g/L (1.0 weight %)) [mm],Foam height at time t = 4 ([1]; 10 g/L (1.0 weight %)) [mm],Foam height at time t = 5 ([1]; 10 g/L (1.0 weight %)) [mm],Critical micelle concentration (CMC) [2] [mg/L]
"CCCCCCCCCCCCOC(=O)CCC[N+](C)(C)CC(O)CS(=O)(=O)[O-] (stereo not shown) [Example 4, 3-(3-(Lauryloxycarbonylpropyl)dimethylammonio)-2-hydroxypropanesulfonate]",142,139,135,132,129,127,173,170,167,162,158,154,–
"CCCCCCCCCCCCOC(=O)CCCC[N+](C)(C)CC(O)CS(=O)(=O)[O-] (stereo not shown) [Example 9, 3-(4-(Lauryloxycarbonylbutyl)dimethylammonio)-2-hydroxypropanesulfonate]",185,175,173,170,170,170,195,190,180,180,180,180,–
"CCCCCCCCCCCCNC(=O)CCC[N+](C)(C)CC(O)CS(=O)(=O)[O-] (stereo not shown) [Example 12, 3-((4-laurylamino-4-oxobutyl)dimethylammonio)-2-hydroxy-propanesulfonate]",160,157,155,153,151,150,182,180,178,177,176,175,80.9
(3-Lauryloxycarbonylpropyl)dimethylammonioacetate [Example 3],171,170,170,169,169,169,165,162,160,158,158,156,24.2
(4-Laurylamino-4-oxobutyl)dimethylammonioacetate [Example 11],174,172,171,171,170,170,182,180,179,178,178,177,76.5
(5-Laurylamino-5-oxopentyl)dimethylammonioacetate [Example 20],180,175,170,170,170,170,175,170,170,170,165,160,–
cocamidopropyl betaine [reference compound],160,159,158,158,158,158,174,172,171,171,170,170,12.7
cocamidopropyl hydroxysultaine [reference compound],–,–,–,–,–,–,–,–,–,–,–,–,9.5

# Second part, the compound after the results:
Foam height at time t = 0 ([1]; 1 g/L (0.1 weight %)) [mm],Foam height at time t = 1 ([1]; 1 g/L (0.1 weight %)) [mm],Foam height at time t = 2 ([1]; 1 g/L (0.1 weight %)) [mm],Foam height at time t = 3 ([1]; 1 g/L (0.1 weight %)) [mm],Foam height at time t = 4 ([1]; 1 g/L (0.1 weight %)) [mm],Foam height at time t = 5 ([1]; 1 g/L (0.1 weight %)) [mm],Foam height at time t = 0 ([1]; 10 g/L (1.0 weight %)) [mm],Foam height at time t = 1 ([1]; 10 g/L (1.0 weight %)) [mm],Foam height at time t = 2 ([1]; 10 g/L (1.0 weight %)) [mm],Foam height at time t = 3 ([1]; 10 g/L (1.0 weight %)) [mm],Foam height at time t = 4 ([1]; 10 g/L (1.0 weight %)) [mm],Foam height at time t = 5 ([1]; 10 g/L (1.0 weight %)) [mm],Critical micelle concentration (CMC) [2] [mg/L],Compound
157,156,153,151,149,147,173,171,170,170,170,169,104.5,"CCCCCCCCCCCCNC(=O)CCCC[N+](C)(C)CC(O)CS(=O)(=O)[O-] (stereo not shown) [Example 21, 3-((5-laurylamino-5-oxopentyl)dimethylammonio)-2-hydroxypropanesulfonate]"
–,–,–,–,–,–,–,–,–,–,–,–,962,"CCCCCCCCCCCC[N+](C)(C)CCCS(=O)(=O)[O-] [N-lauryl-N,N-dimethyl-3-ammonio-1-propanesulfonate, reference compound]"
–,–,–,–,–,–,185,175,170,170,170,165,–,(4-Lauryloxycarbonylbutyl)dimethylammonioacetate [Example 8]
